In patent publication US20250268854A1, “2-AMINO-5,5-DIMETHYLHEXANOIC ACID DERIVATIVES AS SORTILIN MODULATORS FOR USE IN THE TREATMENT OF DISEASE OF THE CENTRAL NERVOUS SYSTEM” (c/o Vesper Bio ApS, priority 2021, published 2025):
Where a name gives a salt, the structure may show the parent alone.

What was measured:
human Sortilin = human Sortilin (Homo sapiens (Human), UniProt Q99523); assay: Creoptix (GCI) binding kinetics, human Sortilin; details: screened at 1 μM
Experimental: A protein, bound to a surface, is bathed in a solution containing potential ligands giving rise to binding kinetics to generate Kon and Koff rates, as well as a Kd.
All buffers described were filtered using a 0.2 μm filter (Product number: 10300461, Nalgene) and degassed for 15 minutes prior to use.
A flow cell temperature of 25 degrees Celsius was used throughout the experiment.
A 4PCH chip was conditioned across all flow cells using 0.2× concentration running buffer (running buffer composition: 1×HBS-N, pH 7.4, 3.4 mM EDTA, 1% DMSO) using pre-set conditioning wizard (WAVE control software) injecting: 0.1 M borate, 1 M NaCl (pH 9) followed by three start-up injections of 0.2× running buffer.
A buffer exchange was performed and 1× running buffer (1×HBS-N, pH 7.4, 3.4 mM EDTA, 1% DMSO) used during the immobilisation procedure:
An initial injection of EDC/NHS (mixed in 1:1 ratio) was performed across all 4-flow cells to activate the surface for amine coupling of ligands.
Recombinant Sortilin aliquots were thawed quickly by hand and centrifuged at 13,300 rpm for 10 minutes. A 10 μg/ml protein solution was then made in pH 5.0 acetate and injected once for 20 minutes over flow-cells 2, 3 and 4 for human, human (flow cells 2 & 3), and mouse Sortilin respectively followed by a 60 second dissociation period.
A final 7-minute passivation injection of 50 mM tris was used across all flow cells.
A flow rate of 10 μl/min was used for all conditioning and immobilisation cycles.
Compounds were screened at 1 μM using the in-built ‘intermediate binders’ settings: 100 ul/min, 45 s baseline, 25 s association, 300 s dissociation, with blanks every 5th sample and a DMSO correction (1.5% DMSO at the start and end of the experiment as well as every 20 cycles. An acquisition rate of 10 Hz was used throughout the experiment.
Compounds were screened at a final assay concentration of 1 μM and a final DMSO concentration was 1%. To achieve this, compounds were diluted in DMSO from 10 mM stocks to 100 μM (100×final assay concentration) then diluted 1:100 in running buffer which contained no DMSO to establish a final assay concentration of compound of 1 μM and a final DMSO concentration of 1% [DMSO].
Compounds and DMSO were mixed by plate shaking at 1000 rpm for 60 seconds using a Bioshake instrument.
A flow rate of 100 μl/min was used throughout the experiment.
Data was evaluated using the RAPID kinetic analysis tool in the GCI WAVE_control software with data fitted using a standard 1:1 kinetic BioModel.

h-Sortilin = h-Sortilin (Homo sapiens (Human), UniProt Q99523); assay: Neurotensin (NTS) scintillation proximity assay (SPA): displacement of [3H]-neurotensin binding; details: 150 nM 6his-Sortilin, 5 nM [3H]-Neurotensin, average of at least 2 determinations
h-Sortilin, sequence (Q99523 78-831): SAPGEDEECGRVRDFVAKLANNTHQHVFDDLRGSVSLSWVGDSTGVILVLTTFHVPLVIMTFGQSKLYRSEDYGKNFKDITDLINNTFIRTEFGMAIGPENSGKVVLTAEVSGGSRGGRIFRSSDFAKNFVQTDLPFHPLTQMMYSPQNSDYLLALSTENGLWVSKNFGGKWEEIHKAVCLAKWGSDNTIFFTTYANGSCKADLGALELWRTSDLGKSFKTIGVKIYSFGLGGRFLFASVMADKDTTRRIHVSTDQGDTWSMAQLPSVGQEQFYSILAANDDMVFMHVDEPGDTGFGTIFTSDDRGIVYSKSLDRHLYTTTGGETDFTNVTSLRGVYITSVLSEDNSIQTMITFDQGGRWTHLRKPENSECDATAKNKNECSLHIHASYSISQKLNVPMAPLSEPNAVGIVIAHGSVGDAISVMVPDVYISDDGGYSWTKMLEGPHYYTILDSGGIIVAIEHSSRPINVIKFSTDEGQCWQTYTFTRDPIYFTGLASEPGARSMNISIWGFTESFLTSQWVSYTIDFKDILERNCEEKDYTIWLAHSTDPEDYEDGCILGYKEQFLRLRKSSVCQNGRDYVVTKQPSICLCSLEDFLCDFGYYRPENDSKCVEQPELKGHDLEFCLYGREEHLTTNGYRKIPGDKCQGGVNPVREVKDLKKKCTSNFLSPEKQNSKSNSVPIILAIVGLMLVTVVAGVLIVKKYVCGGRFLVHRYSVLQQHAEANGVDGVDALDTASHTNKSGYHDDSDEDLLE
Experimental: The exemplified compounds of the invention were tested in a Neurotensin (NTS) scintillation proximity assay (SPA). NTS, which is a 13 amino acid neuropeptide, is a sortilin ligand. The IC50 is a measure of the amount of the compound required to inhibit the binding of NTS to sortilin by 50%. […] Compound affinity was determined by measuring the displacement of [^3H]-neurotensin binding to h-Sortilin in SPA format. […] IC50 values were calculated by nonlinear regression using the sigmoid concentration-response (variable slope) using CDD Vault software. All values reported are average of at least 2 determinations.

human Sortilin, sequence (Q99523 78-755): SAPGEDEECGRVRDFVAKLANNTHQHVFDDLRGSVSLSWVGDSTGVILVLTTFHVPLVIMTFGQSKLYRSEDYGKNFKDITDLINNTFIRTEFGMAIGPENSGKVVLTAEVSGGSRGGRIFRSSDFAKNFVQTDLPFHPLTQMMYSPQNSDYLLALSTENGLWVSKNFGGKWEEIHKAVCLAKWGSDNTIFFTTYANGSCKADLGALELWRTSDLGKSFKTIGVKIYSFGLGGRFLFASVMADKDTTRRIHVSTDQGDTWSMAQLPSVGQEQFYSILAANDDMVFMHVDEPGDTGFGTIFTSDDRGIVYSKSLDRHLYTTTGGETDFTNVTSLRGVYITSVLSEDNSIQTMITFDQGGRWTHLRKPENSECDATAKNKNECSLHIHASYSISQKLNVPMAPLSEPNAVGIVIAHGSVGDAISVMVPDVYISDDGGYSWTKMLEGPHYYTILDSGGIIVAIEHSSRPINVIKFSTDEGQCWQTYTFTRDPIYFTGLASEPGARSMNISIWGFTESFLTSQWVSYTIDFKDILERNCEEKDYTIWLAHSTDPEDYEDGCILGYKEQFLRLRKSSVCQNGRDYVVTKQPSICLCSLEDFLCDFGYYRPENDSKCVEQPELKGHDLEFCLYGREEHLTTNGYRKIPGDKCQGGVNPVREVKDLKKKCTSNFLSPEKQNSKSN

Row | Compound | Kd (human Sortilin; HCl salt) [nM] | IC50 (h-Sortilin) [nM] | Kd (human Sortilin; Free acid) [nM] | IC50 (h-Sortilin; HCl) [nM]
1 | CC(C)(C)CC[C@H](NCc1ccccc1)C(=O)O [Example 3, (S)-2-(benzylamino)-5,5-dimethylhexanoic acid hydrochloride] | 902 | 766 | – | –
2 | COc1ccccc1CN[C@@H](CCC(C)(C)C)C(=O)O [Example 9, (S)-2-((2-methoxybenzyl)amino)-5,5-dimethylhexanoic acid hydrochloride] | 8450 | 630 | – | –
3 | COc1cccc([C@H](N[C@@H](CCC(C)(C)C)C(=O)O)C(F)F)c1 [Example 21, (2S)-2-{[(1S)-2,2-difluoro-1-(3-methoxyphenyl)ethyl]amino}-5,5-dimethylhexanoic acid] | – | 270 | 284 | –
4 | COc1cccc([C@@H](N[C@@H](CCC(C)(C)C)C(=O)O)C(F)F)c1 [Example 22, (2S)-2-{[(1R)-2,2-difluoro-1-(3-methoxyphenyl)ethyl]amino}-5,5-dimethylhexanoic acid] | – | 260 | 5960 | –
5 | COc1cccc([C@@H](N[C@@H](CCC(C)(C)C)C(=O)O)C(F)(F)F)c1 [Example 23, (2S)-5,5-dimethyl-2-{[(1R)-2,2,2-trifluoro-1-(3-methoxyphenyl)ethyl]amino}hexanoic acid] | – | 390 | 4020 | –
6 | COc1cccc([C@H](N[C@@H](CCC(C)(C)C)C(=O)O)C(F)(F)F)c1 [Example 24, (2S)-5,5-dimethyl-2-{[(1S)-2,2,2-trifluoro-1-(3-methoxyphenyl)ethyl]amino}hexanoic acid] | – | – | 230 | –
7 | COc1ccc(OC)c(CN[C@@H](CCC(C)(C)C)C(=O)O)c1 [Example 28, (2S)-2-{[(2,5-dimethoxyphenyl)methyl]amino}-5,5-dimethylhexanoic acid] | – | 2220 | 1020 | –
8 | COc1cc(F)cc(CN[C@@H](CCC(C)(C)C)C(=O)O)c1 [Example 29, (2S)-2-{[(3-fluoro-5-methoxyphenyl)methyl]amino}-5,5-dimethylhexanoic acid] | – | 550 | 571 | –
9 | COc1cc(Cl)cc(CN[C@@H](CCC(C)(C)C)C(=O)O)c1 [Example 30, (2S)-2-{[(3-chloro-5-methoxyphenyl)methyl]amino}-5,5-dimethylhexanoic acid] | – | 580 | 450 | –
10 | COc1cc(Br)cc(CN[C@@H](CCC(C)(C)C)C(=O)O)c1 [Example 31, (2S)-2-{[(3-bromo-5-methoxyphenyl)methyl]amino}-5,5-dimethylhexanoic acid] | – | 520 | 432 | –
11 | COc1cc(CN[C@@H](CCC(C)(C)C)C(=O)O)ccc1C [Example 33, (2S)-2-{[(3-methoxy-4-methylphenyl)methyl]amino}-5,5-dimethylhexanoic acid] | – | 400 | 242 | –
12 | COc1ccc(CN[C@@H](CCC(C)(C)C)C(=O)O)cc1OC [Example 38, (2S)-2-{[(3,4-dimethoxyphenyl)methyl]amino}-5,5-dimethylhexanoic acid] | – | 1360 | 747 | –
13 | CC(C)(C)CC[C@H](NCc1ccc2c(c1)CCCO2)C(=O)O [Example 40, (2S)-2-{[(3,4-dihydro-2H-1-benzopyran-6-yl)methyl]amino}-5,5-dimethylhexanoic acid] | – | 470 | 101 | –
14 | CC(C)(C)CC[C@H](NCc1ccc2c(c1)OCCO2)C(=O)O [Example 41, (2S)-2-{[(2,3-dihydro-1,4-benzodioxin-6-yl)methyl]amino}-5,5-dimethylhexanoic acid] | – | 330 | 5960 | –
15 | CC(C)(C)CC[C@H](NCc1cccc2c1OCO2)C(=O)O [Example 45, (2S)-2-{[(2H-1,3-benzodioxol-4-yl)methyl]amino}-5,5-dimethylhexanoic acid] | – | 1060 | 285 | –
16 | CC(C)(C)CC[C@H](NCc1cncnc1)C(=O)O [Example 55, (2S)-5,5-dimethyl-2-{[(pyrimidin-5-yl)methyl]amino}hexanoic acid] | – | 410 | 1980 | –
17 | COc1cc(C)cc(CN[C@@H](CCC(C)(C)C)C(=O)O)c1 [Example 69, (2S)-2-{[(3-methoxy-5-methylphenyl)methyl]amino}-5,5-dimethylhexanoic acid] | – | 1390 | 2760 | –
18 | COc1cc(CN[C@@H](CCC(C)(C)C)C(=O)O)ccc1F [Example 74, (2S)-2-{[(4-fluoro-3-methoxyphenyl)methyl]amino}-5,5-dimethylhexanoic acid] | – | 950 | 3390 | –

Row | Compound | Kd (human Sortilin; HCl salt) [nM] | IC50 (h-Sortilin) [nM] | Kd (human Sortilin; Free acid) [nM] | IC50 (h-Sortilin; HCl) [nM]
19 | COc1cccc(CN[C@@H](CCC(C)(C)C)C(=O)O)c1C [Example 75, (2S)-2-{[(3-methoxy-2-methylphenyl)methyl]amino}-5,5-dimethylhexanoic acid] | – | 980 | 443 | –
20 | COc1ccc(CN[C@@H](CCC(C)(C)C)C(=O)O)cc1O [Example 91, (2S)-2-{[(3-hydroxy-4-methoxyphenyl)methyl]amino}-5,5-dimethylhexanoic acid] | – | 390 | – | –
21 | Cc1cnccc1CN[C@@H](CCC(C)(C)C)C(=O)O [Example 93] | – | 1630 | – | –
22 | Cc1cncc(CN[C@@H](CCC(C)(C)C)C(=O)O)c1 [Example 95] | – | 690 | – | –
23 | Cc1nc2cc(CN[C@@H](CCC(C)(C)C)C(=O)O)ccc2s1 [Example 100, (2S)-5,5-dimethyl-2-{[(2-methyl-1,3-benzothiazol-5-yl)methyl]amino}hexanoic acid] | – | 380 | – | –
24 | COc1ccc([C@H](C)N[C@@H](CCC(C)(C)C)C(=O)O)cc1C [Example 101] | – | 280 | 277 | –
25 | Cn1ccc2cc(CN[C@@H](CCC(C)(C)C)C(=O)O)cnc21 [Example 106, (2S)-5,5-dimethyl-2-[({1-methyl-1H-pyrrolo[2,3-b]pyridin-5-yl}methyl)amino]hexanoic acid] | – | 590 | – | –
26 | COc1ccc([C@H](C)N[C@@H](CCC(C)(C)C)C(=O)O)cc1OC [Example 108, (S)-2-(((S)-1-(3,4-dimethoxyphenyl)ethyl)amino)-5,5-dimethylhexanoic acid] | – | 370 | – | –
27 | Cn1cnc2cc(CN[C@@H](CCC(C)(C)C)C(=O)O)ccc21 [Example 110, (2S)-5,5-dimethyl-2-{[(1-methyl-1H-1,3-benzodiazol-5-yl)methyl]amino}hexanoic acid] | – | 460 | – | –
28 | CC(C)(C)CC[C@H](NCc1ccc2occc2c1)C(=O)O [Example 117, (2S)-2-{[(1-benzofuran-5-yl)methyl]amino}-5,5-dimethylhexanoic acid] | – | 430 | – | –
29 | Cc1cc(CN[C@@H](CCC(C)(C)C)C(=O)O)ccn1 [Example 132] | – | 880 | – | –
30 | COc1ccc(CN[C@@H](CCC(C)(C)C)C(=O)O)cc1 [Example 133, (2S)-2-{[(4-methoxyphenyl)methyl]amino}-5,5-dimethylhexanoic acid] | – | 820 | – | –
31 | CC(C)(C)CC[C@H](NCc1cccc2[nH]ncc12)C(=O)O [Example 134, (2S)-2-{[(2H-indazol-4-yl)methyl]amino}-5,5-dimethylhexanoic acid] | – | 1320 | – | –
32 | CCn1ccc2c(CN[C@@H](CCC(C)(C)C)C(=O)O)cccc21 [Example 135, (2S)-2-{[(1-ethyl-1H-indol-4-yl)methyl]amino}-5,5-dimethylhexanoic acid] | – | 420 | – | –
33 | Cn1cnc2c(CN[C@@H](CCC(C)(C)C)C(=O)O)cccc21 [Example 138, (S)-5,5-dimethyl-2-(((1-methyl-1H-benzo[d]imidazol-4-yl)methyl)amino)hexanoic acid, Mesylic acid] | – | 740 | – | –
34 | CC(=O)c1cccc(CN[C@@H](CCC(C)(C)C)C(=O)O)c1 [Example 139, (2S)-2-{[(3-acetylphenyl)methyl]amino}-5,5-dimethylhexanoic acid] | – | 570 | – | –
35 | CC(N[C@@H](CCC(C)(C)C)C(=O)O)c1cncnc1 (stereo partly drawn) [Example 141, (2S)-5,5-dimethyl-2-((1-(pyrimidin-5-yl)ethyl)amino)hexanoic acid, HCl] | – | – | – | 640
36 | CC(N[C@@H](CCC(C)(C)C)C(=O)O)c1cncnc1 (stereo partly drawn) [Example 143, (2S)-5,5-dimethyl-2-((1-(pyrimidin-5-yl)ethyl)amino)hexanoic acid, HCl] | – | – | – | 890
